Source: US9108926B2, “Disubstituted 5-fluoro-pyrimidines” (Bayer Intellectual Property GmbH, priority 2011, dated 2015)
pIC50: −log10 of the molar value.

Tests used:
Caco-2 permeation assay = assay type: in vitro ADME; settings: human, pH 7.2, Caco-2, test compound 2 μM
Method: 4. Caco-2 Permeation Assay:
Caco-2 cells (purchased from DSMZ Braunschweig, Germany) were seeded at a density of 4.5×10^4 cells per well on 24 well insert plates, 0.4 μm pore size, and grown for 15 days in DMEM medium supplemented with 10% fetal bovine serum, 1% GlutaMAX (100×, GIBCO), 100 U/mL penicillin, 100 μg/mL streptomycin (GIBCO) and 1% non essential amino acids (100×). Cells were maintained at 37° C. in a humified 5% CO2 atmosphere. Medium was changed every 2-3 day. Before running the permeation assay, the culture medium was replaced by a FCS-free hepes-carbonate transport buffer (pH 7.2). For assessment of monolayer integrity the transepithelial electrical resistance (TEER) was measured. Test compounds were predissolved in DMSO and added either to the apical or basolateral compartment in final concentration of 2 μM in transport buffer. Before and after 2 h incubation at 37° C. samples were taken from both compartments. Analysis of compound content was done after precipitation with methanol by LC/MS/MS analysis. Permeability (Papp) was calculated in the apical to basolateral (A→B) and basolateral to apical (B→A) directions. […] The efflux ratio basolateral (B) to apical (A) was calculated by dividing the Papp B−A by the Papp A−B. In addition the compound recovery was calculated. The following reference compounds were used for the classification of the permeability class: Antipyrine, Pyrazosin, Verapamil, Fluvastatin, Cimetidine, Ranitidine, Atenolol, Sulfasalazine.

NCI-H460 cells = test: Proliferation assay, NCI-H460; assay type: cell-based; settings: Homo sapiens, 96 h; NCI-H460, 4 days, crystal violet; read-out: Inhibition of NCI-H460 cell proliferation IC50
Method: (§1) After 24 hours, the cells of one plate (zero-point plate) were stained with crystal violet (see below), while the medium of the other plates was replaced by fresh culture medium (200 μl), to which the test substances were added in various concentrations (0 μM, as well as in the range of 0.001-10 μM; the final concentration of the solvent dimethyl sulfoxide was 0.5%). The cells were incubated for 4 days in the presence of test substances. Cell proliferation was determined by staining the cells with crystal violet: the cells were fixed by adding 20 μl/measuring point of an 11% glutaric aldehyde solution for 15 minutes at room temperature. After three washing cycles of the fixed cells with water, the plates were dried at room temperature. The cells were stained by adding 100 μl/measuring point of a 0.1% crystal violet solution (pH 3.0). After three washing cycles of the stained cells with water, the plates were dried at room temperature. The dye was dissolved by adding 100 μl/measuring point of a 10% acetic acid solution. […] The change of cell number, in percent, was calculated by normalization of the measured values to the extinction values of the zero-point plate (=0%) and the extinction of the untreated (0 μm) cells (=100%).

HeLa-MaTu-ADR cells = test: Proliferation assay, HeLa-MaTu-ADR; assay type: cell-based; settings: Homo sapiens, 96 h; HeLa-MaTu-ADR, 4 days, crystal violet; read-out: Inhibition of HeLa-MaTu-ADR cell proliferation IC50
Method: as §1

DU145 cells = test: Proliferation assay, DU145; assay type: cell-based; settings: Homo sapiens, DU-145, 96 h; DU145, 4 days, crystal violet; read-out: Inhibition of DU145 cell proliferation IC50
Method: as §1

B16F10 cells = test: Proliferation assay, B16F10; assay type: cell-based; settings: Mus musculus, B16-F10, 96 h; B16F10, 4 days, crystal violet; read-out: Inhibition of B16F10 cell proliferation IC50
Method: as §1

A2780 cells = test: Proliferation assay, A2780; assay type: cell-based; settings: Homo sapiens, 96 h; A2780, 4 days, crystal violet; read-out: Inhibition of A2780 cell proliferation IC50
Method: Cultivated tumour cells (HeLa, human cervical tumour cells, ATCC CCL-2; NCI-H460, human non-small cell lung carcinoma cells, ATCC HTB-177; A2780, human ovarian carcinoma cells, ECACC #93112519; DU 145, hormone-independent human prostate carcinoma cells, ATCC HTB-81; HeLa-MaTu-ADR, multidrug-resistant human cervical carcinoma cells, EPO-GmbH Berlin; Caco-2, human colorectal carcinoma cells, ATCC HTB-37; B16F10, mouse melanoma cells, ATCC CRL-6475) were plated at a density of 5,000 cells/well (DU145, HeLa-MaTu-ADR), 3,000 cells/well (NCI-H460, HeLa), 2,500 cells/well (A2780), 1,500 cells/well (Caco-2), or 1,000 cells/well (B16F10) in a 96-well multititer plate in 200 μL of their respective growth medium supplemented 10% fetal calf serum. […] Cell proliferation was determined by staining the cells with crystal violet: the cells were fixed by adding 20 μl/measuring point of an 11% glutaric aldehyde solution for 15 minutes at room temperature. […] The extinction was determined by photometry at a wavelength of 595 nm. The change of cell number, in percent, was calculated by normalization of the measured values to the extinction values of the zero-point plate (=0%) and the extinction of the untreated (0 μm) cells (=100%).

Caco-2 cells = test: Proliferation assay, Caco-2; assay type: cell-based; settings: Homo sapiens, 96 h; Caco-2, 4 days, crystal violet; read-out: Inhibition of Caco-2 cell proliferation IC50
Method: as §1

HeLa cells = test: Proliferation assay, HeLa; assay type: cell-based; settings: Homo sapiens, 96 h, 4 days, crystal violet, read-out: Inhibition of HeLa cell proliferation IC50
Method: as §1

CDK2/CycE = CDK2/CycE (Homo sapiens, UniProt P24941); test: CDK2/CycE kinase assay (TR-FRET, Method 2)
Text: CDK2/CycE-inhibitory activity of compounds of the present invention was quantified employing the CDK2/CycE TR-FRET assay as described in the following paragraphs:
Recombinant fusion proteins of GST and human CDK2 and of GST and human CycE, expressed in insect cells (Sf9) and purified by Glutathion-Sepharose affinity chromatography, were purchased from ProQinase GmbH (Freiburg, Germany). As substrate for the kinase reaction biotinylated peptide biotin-Ttds-[sequence] (C-terminus in amid form) was used which can be purchased e.g. form the company JERINI Peptide Technologies (Berlin, Germany).
For the assay 50 nl of a 100 fold concentrated solution of the test compound in DMSO was pipetted into a black low volume 384 well microtiter plate (Greiner Bio-One, Frickenhausen, Germany), 2 μl of a solution of CDK2/CycE in aqueous assay buffer [50 mM Tris/HCl pH 8.0, 10 mM MgCl2, 1.0 mM dithiothreitol, 0.1 mM sodium ortho-vanadate, 0.01% (v/v) Nonidet-P40 (Sigma)] were added and the mixture was incubated for 15 min at 22° C. to allow pre-binding of the test compounds to the enzyme before the start of the kinase reaction. Then the kinase reaction was started by the addition of 3 μl of a solution of adenosine-tri-phosphate (ATP, 16.7 μM=>final conc. in the 5 μl assay volume is 10 μM) and substrate (1.25 μM=>final conc. in the 5 μl assay volume is 0.75 μM) in assay buffer and the resulting mixture was incubated for a reaction time of 25 min at 22° C. The concentration of CDK2/CycE was adjusted depending of the activity of the enzyme lot and was chosen appropriate to have the assay in the linear range, typical concentrations were in the range of 130 ng/mL. The reaction was stopped by the addition of 5 μl of a solution of TR-FRET detection reagents (0.2 μM streptavidine-XL665 [Cisbio Bioassays, Codolet, France] and 1 nM anti-RB(pSer807/pSer811)-antibody from BD Pharmingen [#558389] and 1.2 nM LANCE EU-W1024 labeled anti-mouse IgG antibody [Perkin-Elmer, product no. AD0077]) in an aqueous EDTA-solution (100 mM EDTA, 0.2% (w/v) bovine serum albumin in 100 mM HEPES/NaOH pH 7.0).
The resulting mixture was incubated 1 h at 22° C. to allow the formation of complex between the phosphorylated biotinylated peptide and the detection reagents. Subsequently the amount of phosphorylated substrate was evaluated by measurement of the resonance energy transfer from the Eu-chelate to the streptavidine-XL. Therefore, the fluorescence emissions at 620 nm and 665 nm after excitation at 350 nm was measured in a TR-FRET reader, e.g. a Rubystar (BMG Labtechnologies, Offenburg, Germany) or a Viewlux (Perkin-Elmer). The ratio of the emissions at 665 nm and at 622 nm was taken as the measure for the amount of phosphorylated substrate.

For `COc1cc(F)ccc1-c1nc(Nc2cc(F)cc(CS(C)(=O)=O)c2)ncc1F` [Example 12, 5-Fluoro-4-(4-fluoro-2-methoxyphenyl)-N-{3-fluoro-5-[(methylsulfonyl)methyl]phenyl}pyrimidin-2-amine], which Papp A→B at 2 h, 2 μM (Caco-2 permeation assay; apical to basolateral, read-out: Papp A-B (Mari)) is on record?
Its Papp A→B at 2 h, 2 μM is 9.7 ×10⁻⁶ cm/s.

And the Papp B→A at 2 h, 2 μM (Caco-2 permeation assay; basolateral to apical, read-out: Papp B-A (Mari))?
The Papp B→A at 2 h, 2 μM was 3.1 ×10⁻⁶ cm/s.

What about the pIC50 (NCI-H460 cells) of the same compound?
The pIC50 was 6.44.

And the pIC50 (HeLa-MaTu-ADR cells)?
The pIC50 was 6.92.

And the pIC50 (DU145 cells)?
The pIC50 was 6.51.

What about the pIC50 (B16F10 cells) of the same compound?
The pIC50 was 6.44.

And the pIC50 (A2780 cells)?
The pIC50 was 6.96.

What about the pIC50 (Caco-2 cells) of the same compound?
Its pIC50 is 6.42.

And the pIC50 (HeLa cells)?
The pIC50 was 6.96.

And the pIC50 (CDK2/CycE)?
The pIC50 was 6.70.
